Data taken from ChEMBL document CHEMBL5727703, “Bicyclic hydroxamic acids useful as inhibitors of mammalian histone deacetylase activity” (2020).

Target: T1, Protein deacetylase HDAC6 (Homo sapiens, UniProt Q9UBN7)
T1 sequence (Q9UBN7 whole entry): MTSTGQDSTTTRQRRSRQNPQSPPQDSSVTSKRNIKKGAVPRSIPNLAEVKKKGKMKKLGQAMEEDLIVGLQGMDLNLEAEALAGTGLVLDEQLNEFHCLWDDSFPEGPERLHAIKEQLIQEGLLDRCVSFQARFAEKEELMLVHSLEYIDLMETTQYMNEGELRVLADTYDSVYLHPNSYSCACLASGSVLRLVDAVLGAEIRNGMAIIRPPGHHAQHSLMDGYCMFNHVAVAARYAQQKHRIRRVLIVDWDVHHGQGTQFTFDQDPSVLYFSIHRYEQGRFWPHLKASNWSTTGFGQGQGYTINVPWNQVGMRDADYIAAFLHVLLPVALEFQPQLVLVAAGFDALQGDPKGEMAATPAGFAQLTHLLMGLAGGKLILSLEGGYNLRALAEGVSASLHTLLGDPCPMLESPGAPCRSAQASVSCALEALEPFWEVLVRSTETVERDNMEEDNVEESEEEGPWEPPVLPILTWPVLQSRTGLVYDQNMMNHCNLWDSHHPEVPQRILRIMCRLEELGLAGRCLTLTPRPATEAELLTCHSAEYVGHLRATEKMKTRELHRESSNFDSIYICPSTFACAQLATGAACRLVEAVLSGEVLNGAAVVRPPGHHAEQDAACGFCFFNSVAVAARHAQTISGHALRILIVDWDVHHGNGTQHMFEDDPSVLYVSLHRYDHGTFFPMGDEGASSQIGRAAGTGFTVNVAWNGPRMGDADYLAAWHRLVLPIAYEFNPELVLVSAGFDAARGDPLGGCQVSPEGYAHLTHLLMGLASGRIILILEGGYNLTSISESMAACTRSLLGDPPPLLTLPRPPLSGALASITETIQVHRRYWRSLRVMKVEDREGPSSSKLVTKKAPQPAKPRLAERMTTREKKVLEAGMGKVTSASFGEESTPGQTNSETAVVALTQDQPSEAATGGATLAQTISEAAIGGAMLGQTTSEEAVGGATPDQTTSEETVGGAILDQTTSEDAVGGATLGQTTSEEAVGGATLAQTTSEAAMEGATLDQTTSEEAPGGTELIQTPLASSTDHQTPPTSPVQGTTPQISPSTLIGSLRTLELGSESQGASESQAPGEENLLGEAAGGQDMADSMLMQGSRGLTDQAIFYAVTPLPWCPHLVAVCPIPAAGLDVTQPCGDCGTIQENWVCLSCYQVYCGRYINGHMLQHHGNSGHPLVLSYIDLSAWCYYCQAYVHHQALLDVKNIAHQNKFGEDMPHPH
Assay: In Vitro Enzymatic Assay: The assay principle is well known and all necessary reagents like enzymes, substrates, developer and reference compounds are commercially available. Stock solutions (10 mM in DMSO) of compounds were serially diluted 1:3 in 11 concentrations with a top concentration of 200 μM for HDAC1,2,3 and 2 μM for HDAC6 and HDAC8. The enzymatic reactions were conducted in a mixture containing assay buffer, bovine serum albumin, HDAC substrate, and a test compound. After enzymatic reaction, developer was added and after an additional incubation time, fluorescence intensity was measured at an excitation wavelength of 360 nm and an emission wavelength of 460 nm. All experiments were performed in duplicate.

SMILES: Cn1cc(CNCC2CCN(c3nc4cc(C(=O)NO)ccc4o3)CC2)c2ccccc21
- IC50: 41 nM
